Experimental data taken from patent US20260250318A1, “COMPOSITIONS AND METHODS FOR CROSSING THE BLOOD BRAIN BARRIER” (VOYAGER THERAPEUTICS, INC., priority 2022, published 2026).

system: brains, heart, liver, muscle, and DRG of the NHPs; experiment: Maturation of TTM-001 and TTM-002 capsids, NGS enrichment in NHP tissues; type: in vivo; conditions: NGS fold-enrichment of RNA, NHP brain, relative to AAV9 control
Outline: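 Variants carry mutations within and flanking the loop IV peptide insert: positions 450–466 were triplet-randomized, while positions 449–466 received low-frequency point mutations. The combined pool went into two NHPs, and each peptide was scored by NGS enrichment ratio against AAV9.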

Question: For KTESGHDSPHKSGQNQQT, which “Fold Enrichment relative to AAV9, Brain (NHP)” value is on record?
Answer: 86.513 fold

Question: KAINGHDSPHKSGPRQQT was tested. Which “Fold Enrichment relative to AAV9, Brain (NHP)” value did it give?
Answer: 145.142 fold

Question: KTEFGHDSPHKSGQNQQT was tested. Which “Fold Enrichment relative to AAV9, Brain (NHP)” value did it give?
Answer: 77.245 fold

Question: Which “Fold Enrichment relative to AAV9, Brain (NHP)” value does the source give for KTINGGGSPHSKAQNQLI here?
Answer: 83.881 fold

Question: With KTINGQDSPHKSGQNQDT as the sequence, how does the “Fold Enrichment relative to AAV9, Brain (NHP)” value read?
Answer: 82.075 fold

Question: With KTELRHDSPHKSGQNQQT as the sequence, how does the “Fold Enrichment relative to AAV9, Brain (NHP)” value read?
Answer: 98.098 fold

Question: With KTVNGHDSPHKSGHTQQT as the sequence, how does the “Fold Enrichment relative to AAV9, Brain (NHP)” value read?
Answer: 82.246 fold

same assay, conditions: NGS fold-enrichment of matured AAV capsid variants; NHP brain, RNA; relative to AAV9 control

Question: For KGGEGSGSPHSKAQNQQT, which “Fold Enrichment relative to AAV9, Brain (NHP)” value is on record?
Answer: 58.472 fold

Question: How did the “Fold Enrichment relative to AAV9, Brain (NHP)” value turn out when KTINGSGSPHSKAPSNQT was run?
Answer: 52.680 fold

same assay, conditions: NGS fold-enrichment, DRG of NHPs, relative to AAV9 control

Question: KTINGGGSPHSKAQNQLI was tested. Which “Fold Enrichment relative to AAV9, DRG (NHP)” value did it give?
Answer: 0.000 fold

same assay, conditions: NGS fold-enrichment, NHP DRG, relative to AAV9 control

Question: KTESGHDSPHKSGQNQQT was tested. Which “Fold Enrichment relative to AAV9, DRG (NHP)” value did it give?
Answer: 0.000 fold

Question: With KAINGHDSPHKSGPRQQT as the sequence, how does the “Fold Enrichment relative to AAV9, DRG (NHP)” value read?
Answer: 0.000 fold

Question: For KTEFGHDSPHKSGQNQQT, which “Fold Enrichment relative to AAV9, DRG (NHP)” value is on record?
Answer: 0.000 fold

Question: With KTINGGGSPHSKAQNQLI as the sequence, how does the “Fold Enrichment relative to AAV9, DRG (NHP)” value read?
Answer: 0.000 fold

Question: How did the “Fold Enrichment relative to AAV9, DRG (NHP)” value turn out when KTINGQDSPHKSGQNQDT was run?
Answer: 0.000 fold

Question: How did the “Fold Enrichment relative to AAV9, DRG (NHP)” value turn out when KTELRHDSPHKSGQNQQT was run?
Answer: 0.000 fold

Question: With KTVNGHDSPHKSGHTQQT as the sequence, how does the “Fold Enrichment relative to AAV9, DRG (NHP)” value read?
Answer: 0.000 fold

same assay, conditions: NGS fold-enrichment, NHP heart, relative to AAV9 control

Question: How did the “Fold Enrichment relative to AAV9, Heart (NHP)” value turn out when KTESGHDSPHKSGQNQQT was run?
Answer: 7.414 fold

Question: How did the “Fold Enrichment relative to AAV9, Heart (NHP)” value turn out when KAINGHDSPHKSGPRQQT was run?
Answer: 0.408 fold

Question: With KTEFGHDSPHKSGQNQQT as the sequence, how does the “Fold Enrichment relative to AAV9, Heart (NHP)” value read?
Answer: 0.124 fold

Question: How did the “Fold Enrichment relative to AAV9, Heart (NHP)” value turn out when KTINGGGSPHSKAQNQLI was run?
Answer: 0.000 fold

Question: With KTINGQDSPHKSGQNQDT as the sequence, how does the “Fold Enrichment relative to AAV9, Heart (NHP)” value read?
Answer: 0.067 fold

Question: Which “Fold Enrichment relative to AAV9, Heart (NHP)” value does the source give for KTELRHDSPHKSGQNQQT here?
Answer: 0.019 fold

Question: For KTVNGHDSPHKSGHTQQT, which “Fold Enrichment relative to AAV9, Heart (NHP)” value is on record?
Answer: 0.378 fold

same assay, conditions: NGS fold-enrichment, NHP liver DNA, relative to AAV9 control

Question: Which “Fold Enrichment relative to AAV9, Liver DNA (NHP)” value does the source give for KTESGHDSPHKSGQNQQT here?
Answer: 0.038 fold

Question: How did the “Fold Enrichment relative to AAV9, Liver DNA (NHP)” value turn out when KAINGHDSPHKSGPRQQT was run?
Answer: 0.000 fold

Question: For KTEFGHDSPHKSGQNQQT, which “Fold Enrichment relative to AAV9, Liver DNA (NHP)” value is on record?
Answer: 0.063 fold

Question: For KTINGGGSPHSKAQNQLI, which “Fold Enrichment relative to AAV9, Liver DNA (NHP)” value is on record?
Answer: 0.387 fold

Question: With KTINGQDSPHKSGQNQDT as the sequence, how does the “Fold Enrichment relative to AAV9, Liver DNA (NHP)” value read?
Answer: 0.144 fold

Question: How did the “Fold Enrichment relative to AAV9, Liver DNA (NHP)” value turn out when KTELRHDSPHKSGQNQQT was run?
Answer: 0.007 fold

Question: How did the “Fold Enrichment relative to AAV9, Liver DNA (NHP)” value turn out when KTVNGHDSPHKSGHTQQT was run?
Answer: 0.123 fold

same assay, conditions: NGS fold-enrichment, NHP liver RNA, relative to AAV9 control

Question: With KTESGHDSPHKSGQNQQT as the sequence, how does the “Fold Enrichment relative to AAV9, Liver RNA (NHP)” value read?
Answer: 0.000 fold

Question: How did the “Fold Enrichment relative to AAV9, Liver RNA (NHP)” value turn out when KAINGHDSPHKSGPRQQT was run?
Answer: 0.000 fold

Question: How did the “Fold Enrichment relative to AAV9, Liver RNA (NHP)” value turn out when KTEFGHDSPHKSGQNQQT was run?
Answer: 0.561 fold

Question: How did the “Fold Enrichment relative to AAV9, Liver RNA (NHP)” value turn out when KTINGGGSPHSKAQNQLI was run?
Answer: 0.046 fold

Question: Which “Fold Enrichment relative to AAV9, Liver RNA (NHP)” value does the source give for KTINGQDSPHKSGQNQDT here?
Answer: 0.225 fold

Question: Which “Fold Enrichment relative to AAV9, Liver RNA (NHP)” value does the source give for KTELRHDSPHKSGQNQQT here?
Answer: 0.000 fold

Question: For KTVNGHDSPHKSGHTQQT, which “Fold Enrichment relative to AAV9, Liver RNA (NHP)” value is on record?
Answer: 0.000 fold

same assay, conditions: NGS fold-enrichment, NHP muscle, relative to AAV9 control

Question: KTESGHDSPHKSGQNQQT was tested. Which “Fold Enrichment relative to AAV9, Muscle (NHP)” value did it give?
Answer: 0.000 fold

Question: With KAINGHDSPHKSGPRQQT as the sequence, how does the “Fold Enrichment relative to AAV9, Muscle (NHP)” value read?
Answer: 0.000 fold

Question: How did the “Fold Enrichment relative to AAV9, Muscle (NHP)” value turn out when KTEFGHDSPHKSGQNQQT was run?
Answer: 0.000 fold

Question: KTINGGGSPHSKAQNQLI was tested. Which “Fold Enrichment relative to AAV9, Muscle (NHP)” value did it give?
Answer: 0.000 fold

Question: For KTINGQDSPHKSGQNQDT, which “Fold Enrichment relative to AAV9, Muscle (NHP)” value is on record?
Answer: 0.000 fold

Question: For KTELRHDSPHKSGQNQQT, which “Fold Enrichment relative to AAV9, Muscle (NHP)” value is on record?
Answer: 0.000 fold

Question: Which “Fold Enrichment relative to AAV9, Muscle (NHP)” value does the source give for KTVNGHDSPHKSGHTQQT here?
Answer: 1.142 fold

same assay, conditions: NGS fold-enrichment, RNA, brain of NHPs, relative to AAV9 control

Question: KTINGGGSPHSKAQNQLI was tested. Which “Fold Enrichment relative to AAV9, Brain (NHP)” value did it give?
Answer: 83.881 fold

same assay, conditions: NGS fold-enrichment, heart of NHPs, relative to AAV9 control

Question: How did the “Fold Enrichment relative to AAV9, Heart (NHP)” value turn out when KTINGGGSPHSKAQNQLI was run?
Answer: 0.000 fold

same assay, conditions: NGS fold-enrichment, liver DNA of NHPs, relative to AAV9 control

Question: For KTINGGGSPHSKAQNQLI, which “Fold Enrichment relative to AAV9, Liver DNA (NHP)” value is on record?
Answer: 0.387 fold

same assay, conditions: NGS fold-enrichment, liver RNA of NHPs, relative to AAV9 control

Question: Which “Fold Enrichment relative to AAV9, Liver RNA (NHP)” value does the source give for KTINGGGSPHSKAQNQLI here?
Answer: 0.046 fold

same assay, conditions: NGS fold-enrichment, muscle of NHPs, relative to AAV9 control

Question: For KTINGGGSPHSKAQNQLI, which “Fold Enrichment relative to AAV9, Muscle (NHP)” value is on record?
Answer: 0.000 fold

same assay, conditions: NHP DRG; relative to AAV9 control

Question: KGGEGSGSPHSKAQNQQT was tested. Which “Fold Enrichment relative to AAV9, DRG (NHP)” value did it give?
Answer: 0.000 fold

Question: With KTINGSGSPHSKAPSNQT as the sequence, how does the “Fold Enrichment relative to AAV9, DRG (NHP)” value read?
Answer: 1.494 fold

same assay, conditions: NHP heart; relative to AAV9 control

Question: Which “Fold Enrichment relative to AAV9, Heart (NHP)” value does the source give for KGGEGSGSPHSKAQNQQT here?
Answer: 0.034 fold

Question: KTINGSGSPHSKAPSNQT was tested. Which “Fold Enrichment relative to AAV9, Heart (NHP)” value did it give?
Answer: 4.762 fold

same assay, conditions: NHP liver, DNA; relative to AAV9 control

Question: Which “Fold Enrichment relative to AAV9, Liver DNA (NHP)” value does the source give for KGGEGSGSPHSKAQNQQT here?
Answer: 0.066 fold

Question: KTINGSGSPHSKAPSNQT was tested. Which “Fold Enrichment relative to AAV9, Liver DNA (NHP)” value did it give?
Answer: 0.208 fold

same assay, conditions: NHP liver, RNA; relative to AAV9 control

Question: For KGGEGSGSPHSKAQNQQT, which “Fold Enrichment relative to AAV9, Liver RNA (NHP)” value is on record?
Answer: 0.037 fold

Question: For KTINGSGSPHSKAPSNQT, which “Fold Enrichment relative to AAV9, Liver RNA (NHP)” value is on record?
Answer: 0.330 fold

same assay, conditions: NHP muscle; relative to AAV9 control

Question: KGGEGSGSPHSKAQNQQT was tested. Which “Fold Enrichment relative to AAV9, Muscle (NHP)” value did it give?
Answer: 0.000 fold

Question: How did the “Fold Enrichment relative to AAV9, Muscle (NHP)” value turn out when KTINGSGSPHSKAPSNQT was run?
Answer: 0.003 fold

system: brain; experiment: Matured TTM-001 and TTM-002 variants, NGS enrichment in mouse brain; type: in vivo, mice; conditions: NGS fold-enrichment, brain of mice, relative to AAV9 control

Question: Which “Fold Enrichment relative to AAV9, Brain (Mouse)” value does the source give for KTINGGGSPHSKAQNQLI here?
Answer: 78.383 fold

same assay, conditions: NGS fold-enrichment, mouse brain, relative to AAV9 control

Question: How did the “Fold Enrichment relative to AAV9, Brain (Mouse)” value turn out when KTESGHDSPHKSGQNQQT was run?
Answer: 13.163 fold

Question: How did the “Fold Enrichment relative to AAV9, Brain (Mouse)” value turn out when KAINGHDSPHKSGPRQQT was run?
Answer: 8.259 fold

Question: With KTEFGHDSPHKSGQNQQT as the sequence, how does the “Fold Enrichment relative to AAV9, Brain (Mouse)” value read?
Answer: 16.337 fold

Question: For KTINGGGSPHSKAQNQLI, which “Fold Enrichment relative to AAV9, Brain (Mouse)” value is on record?
Answer: 78.383 fold

Question: With KTINGQDSPHKSGQNQDT as the sequence, how does the “Fold Enrichment relative to AAV9, Brain (Mouse)” value read?
Answer: 9.626 fold

Question: For KTELRHDSPHKSGQNQQT, which “Fold Enrichment relative to AAV9, Brain (Mouse)” value is on record?
Answer: 6.588 fold

Question: For KTVNGHDSPHKSGHTQQT, which “Fold Enrichment relative to AAV9, Brain (Mouse)” value is on record?
Answer: 6.160 fold

same assay, conditions: mouse brain; relative to AAV9 control

Question: How did the “Fold Enrichment relative to AAV9, Brain (Mouse)” value turn out when KGGEGSGSPHSKAQNQQT was run?
Answer: 91.023 fold

Question: With KTINGSGSPHSKAPSNQT as the sequence, how does the “Fold Enrichment relative to AAV9, Brain (Mouse)” value read?
Answer: 87.951 fold
